Measurements reported in PubChem BioAssay (NCI).
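Step 1: Grow cells in 96-well plates. Step 2: Expose to compound for 48 hours at 5 concentrations. Step 3: Interpolate endpoints linearly; if unreached, use highest concentration. GI50 marks 50% less growth. TGI: concentration producing complete growth inhibition.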

Key:
Assay in all cases: NCI anticancer screen, dose series, 48 h
U251 CNS = tested on: U251 CNS
UACC-257 melanoma = tested on: UACC-257 melanoma
SK-MEL-28 melanoma = tested on: SK-MEL-28 melanoma
HOP-62 NSCLC = tested on: HOP-62 NSCLC
CAKI-1 renal = tested on: CAKI-1 renal
HT29 colon = tested on: HT29 colon
NCI-H226 lung = tested on: NCI-H226 lung
A498 renal = tested on: A498 renal
OVCAR-5 ovarian = tested on: OVCAR-5 ovarian
PC-3 prostate = tested on: PC-3 prostate
KM12 colon = tested on: KM12 colon
DU-145 prostate = tested on: DU-145 prostate
MDA-MB-231 breast = tested on: MDA-MB-231 breast
ACHN renal = tested on: ACHN renal
HL-60(TB) leukemia = tested on: HL-60(TB) leukemia
SR leukemia = tested on: SR leukemia
SF-295 CNS = tested on: SF-295 CNS
786-0 renal = tested on: 786-0 renal
SW-620 colon = tested on: SW-620 colon
T-47D breast = tested on: T-47D breast
OVCAR-8 ovarian = tested on: OVCAR-8 ovarian
COLO 205 colon = tested on: COLO 205 colon
HCC-2998 colon = tested on: HCC-2998 colon
RPMI-8226 leukemia = tested on: RPMI-8226 leukemia
EKVX NSCLC = tested on: EKVX NSCLC
SF-268 CNS = tested on: SF-268 CNS
NCI-H460 lung = tested on: NCI-H460 lung
HCT-116 colon = tested on: HCT-116 colon
OVCAR-3 ovarian = tested on: OVCAR-3 ovarian
SNB-19 CNS = tested on: SNB-19 CNS
MCF7 breast = tested on: MCF7 breast
BT-549 breast = tested on: BT-549 breast
MOLT-4 leukemia = tested on: MOLT-4 leukemia
HS 578T breast = tested on: HS 578T breast
A549 NSCLC = tested on: A549 NSCLC
IGROV1 ovarian = tested on: IGROV1 ovarian
K-562 leukemia = tested on: K-562 leukemia
M14 melanoma = tested on: M14 melanoma
HOP-92 NSCLC = tested on: HOP-92 NSCLC
NCI-H23 lung = tested on: NCI-H23 lung
UO-31 renal = tested on: UO-31 renal
MDA-MB-435 = tested on: MDA-MB-435
HCT-15 colon = tested on: HCT-15 colon
NCI/ADR-RES ovarian = tested on: NCI/ADR-RES ovarian
SK-MEL-2 melanoma = tested on: SK-MEL-2 melanoma
TK-10 renal = tested on: TK-10 renal
OVCAR-4 ovarian = tested on: OVCAR-4 ovarian
SK-MEL-5 melanoma = tested on: SK-MEL-5 melanoma
SF-539 CNS = tested on: SF-539 CNS
SK-OV-3 ovarian = tested on: SK-OV-3 ovarian
NCI-H522 lung = tested on: NCI-H522 lung
MALME-3M melanoma = tested on: MALME-3M melanoma
SNB-75 CNS = tested on: SNB-75 CNS
UACC-62 melanoma = tested on: UACC-62 melanoma
RXF 393 renal = tested on: RXF 393 renal
SN12C renal = tested on: SN12C renal
LOX IMVI melanoma = tested on: LOX IMVI melanoma
CCRF-CEM leukemia = tested on: CCRF-CEM leukemia

## C#Cc1cc(OC)c(C(=O)Nc2ccc(F)cc2C(=O)Nc2cccc(S(=O)(=O)C(F)(F)F)c2)cn1
U251 CNS
  GI50: 280 nM
  TGI: 840 nM
UACC-257 melanoma
  GI50: 3030 nM
  TGI: > 83600 nM
SK-MEL-28 melanoma
  GI50: 2840 nM
  TGI: > 25800 nM
HOP-62 NSCLC
  GI50: 38.1 nM
  TGI: 212 nM
CAKI-1 renal
  GI50: 149 nM
  TGI: 884 nM
HT29 colon
  GI50: 447 nM
  TGI: 2500 nM
NCI-H226 lung
  GI50: 1720 nM
  TGI: 8900 nM
A498 renal
  GI50: 250 nM
  TGI: 656 nM
OVCAR-5 ovarian
  GI50: 269 nM
  TGI: 1800 nM
PC-3 prostate
  GI50: 1520 nM
  TGI: 14500 nM
KM12 colon
  GI50: 299 nM
  TGI: 1540 nM
DU-145 prostate
  GI50: 3250 nM
  TGI: > 100000 nM
MDA-MB-231 breast
  GI50: 117 nM
  TGI: 596 nM
ACHN renal
  GI50: 205 nM
  TGI: 1670 nM
HL-60(TB) leukemia
  GI50: 28.9 nM
  TGI: 84.5 nM
SR leukemia
  GI50: 21.6 nM
  TGI: 68.9 nM
SF-295 CNS
  GI50: 176 nM
  TGI: 333 nM
786-0 renal
  GI50: 24.1 nM
  TGI: 63.3 nM
SW-620 colon
  GI50: 1130 nM
  TGI: 3420 nM
T-47D breast
  GI50: 1730 nM
  TGI: 4300 nM
OVCAR-8 ovarian
  GI50: 389 nM
  TGI: 4430 nM
COLO 205 colon
  GI50: 1680 nM
  TGI: > 42700 nM
HCC-2998 colon
  GI50: 2100 nM
  TGI: 4640 nM
RPMI-8226 leukemia
  GI50: 174 nM
  TGI: 550 nM
EKVX NSCLC
  GI50: 290 nM
  TGI: 1100 nM
SF-268 CNS
  GI50: 285 nM
  TGI: 927 nM
NCI-H460 lung
  GI50: 419 nM
  TGI: 1690 nM
HCT-116 colon
  GI50: 417 nM
  TGI: > 100000 nM
OVCAR-3 ovarian
  GI50: 224 nM
  TGI: 576 nM
SNB-19 CNS
  GI50: 1590 nM
  TGI: 3550 nM
MCF7 breast
  GI50: 727 nM
  TGI: > 100000 nM
BT-549 breast
  GI50: 500 nM
  TGI: 1850 nM
MOLT-4 leukemia
  GI50: 322 nM
  TGI: 1350 nM
HS 578T breast
  GI50: 525 nM
  TGI: 3140 nM
A549 NSCLC
  GI50: 1060 nM
  TGI: 5200 nM
IGROV1 ovarian
  GI50: 20.8 nM
  TGI: 51.2 nM
K-562 leukemia
  GI50: 666 nM
  TGI: > 100000 nM
M14 melanoma
  GI50: 1270 nM
  TGI: > 28400 nM
HOP-92 NSCLC
  GI50: 20.1 nM
  TGI: 53.9 nM
NCI-H23 lung
  GI50: 101 nM
  TGI: 559 nM
UO-31 renal
  GI50: 17.5 nM
  TGI: 44.9 nM
MDA-MB-435
  GI50: 1750 nM
  TGI: > 23800 nM
HCT-15 colon
  GI50: 629 nM
  TGI: 2680 nM
NCI/ADR-RES ovarian
  GI50: 52.1 nM
  TGI: 340 nM
SK-MEL-2 melanoma
  GI50: 2870 nM
  TGI: 10600 nM
TK-10 renal
  GI50: 5860 nM
  TGI: > 100000 nM
OVCAR-4 ovarian
  GI50: 1980 nM
  TGI: > 26600 nM
SK-MEL-5 melanoma
  GI50: 1240 nM
  TGI: 2880 nM
SF-539 CNS
  GI50: 99.9 nM
  TGI: 252 nM
SK-OV-3 ovarian
  GI50: 205 nM
  TGI: 412 nM
NCI-H522 lung
  GI50: 60.6 nM
  TGI: 237 nM
MALME-3M melanoma
  GI50: 43.3 nM
  TGI: 130 nM
SNB-75 CNS
  GI50: 190 nM
  TGI: 529 nM
UACC-62 melanoma
  GI50: 778 nM
  TGI: 2310 nM
RXF 393 renal
  GI50: 337 nM
  TGI: 1190 nM
SN12C renal
  GI50: 542 nM
  TGI: > 36700 nM

## CCN1C(=O)N(CC)C2C1NN=C1SC(c3ccccc3)=CC(=O)N12 (configuration not stated)
U251 CNS
  GI50: 546 nM
  TGI: > 100000 nM
LOX IMVI melanoma
  GI50: 562 nM
  TGI: > 100000 nM
SK-MEL-28 melanoma
  GI50: 872 nM
  TGI: > 100000 nM
HOP-62 NSCLC
  GI50: 532 nM
  TGI: > 100000 nM
CAKI-1 renal
  GI50: 357 nM
  TGI: > 100000 nM
HT29 colon
  GI50: 338 nM
NCI-H226 lung
  GI50: 561 nM
  TGI: > 72000 nM
A498 renal
  GI50: > 100000 nM
  TGI: > 100000 nM
CCRF-CEM leukemia
  GI50: 428 nM
  TGI: > 100000 nM
OVCAR-5 ovarian
  GI50: 921 nM
  TGI: > 100000 nM
PC-3 prostate
  GI50: 515 nM
  TGI: > 100000 nM
KM12 colon
  GI50: 344 nM
  TGI: > 85600 nM
DU-145 prostate
  GI50: 717 nM
  TGI: > 100000 nM
MDA-MB-231 breast
  GI50: 2450 nM
  TGI: > 100000 nM
ACHN renal
  GI50: 660 nM
  TGI: > 100000 nM
HL-60(TB) leukemia
  GI50: 308 nM
SR leukemia
  GI50: 140 nM
  TGI: > 100000 nM
SF-295 CNS
  GI50: 389 nM
  TGI: > 24900 nM
786-0 renal
  GI50: 472 nM
  TGI: > 100000 nM
SW-620 colon
  GI50: 349 nM
  TGI: > 100000 nM
T-47D breast
  GI50: 286 nM
  TGI: > 100000 nM
OVCAR-8 ovarian
  GI50: 1470 nM
  TGI: > 20400 nM
COLO 205 colon
  GI50: 429 nM
  TGI: 2200 nM
HCC-2998 colon
  GI50: 1540 nM
  TGI: > 28200 nM
RPMI-8226 leukemia
  GI50: 580 nM
  TGI: > 54300 nM
EKVX NSCLC
  TGI: > 100000 nM
SF-268 CNS
  GI50: 3050 nM
  TGI: > 100000 nM
NCI-H460 lung
  GI50: 394 nM
  TGI: > 36900 nM
HCT-116 colon
  GI50: 388 nM
  TGI: > 100000 nM
OVCAR-3 ovarian
  GI50: 320 nM
  TGI: 1590 nM
SNB-19 CNS
  GI50: 730 nM
  TGI: > 100000 nM
MCF7 breast
  GI50: 277 nM
  TGI: > 100000 nM
BT-549 breast
  GI50: 330 nM
  TGI: 25100 nM
MOLT-4 leukemia
  GI50: 809 nM
  TGI: > 100000 nM
HS 578T breast
  GI50: 489 nM
  TGI: > 100000 nM
A549 NSCLC
  GI50: 1020 nM
  TGI: > 100000 nM
IGROV1 ovarian
  GI50: 1090 nM
  TGI: > 100000 nM
K-562 leukemia
  GI50: 258 nM
  TGI: > 100000 nM
M14 melanoma
  GI50: 344 nM
  TGI: > 100000 nM
HOP-92 NSCLC
  GI50: > 36300 nM
  TGI: > 100000 nM
NCI-H23 lung
  GI50: 1220 nM
  TGI: > 100000 nM
UO-31 renal
  GI50: 605 nM
  TGI: > 100000 nM
MDA-MB-435
  GI50: 42.9 nM
  TGI: 176 nM
HCT-15 colon
  GI50: 313 nM
  TGI: > 74900 nM
NCI/ADR-RES ovarian
  GI50: 385 nM
  TGI: > 100000 nM
SK-MEL-2 melanoma
  GI50: 481 nM
  TGI: > 100000 nM
TK-10 renal
  GI50: 53500 nM
  TGI: > 100000 nM
OVCAR-4 ovarian
  GI50: 15700 nM
  TGI: > 100000 nM
SK-MEL-5 melanoma
  GI50: 493 nM
  TGI: 41800 nM
SF-539 CNS
  GI50: 375 nM
  TGI: 3030 nM
SK-OV-3 ovarian
  GI50: 545 nM
  TGI: > 56100 nM
NCI-H522 lung
  GI50: 228 nM
  TGI: 772 nM
MALME-3M melanoma
  GI50: 492 nM
  TGI: > 100000 nM
SNB-75 CNS
  GI50: 210 nM
UACC-62 melanoma
  GI50: 343 nM
  TGI: > 100000 nM
RXF 393 renal
  GI50: 198 nM
  TGI: 538 nM
SN12C renal
  GI50: 596 nM
  TGI: > 100000 nM
